Results from patent US9511111B2, “Methods for the treatment of X-linked hypophosphatemia and related disorders” (WISCONSIN ALUMNI RESEARCH FOUNDATION, priority 2010, dated 2016).
“Also recorded” adds a separate entry of the source.

Key:
[1] = test system: MOB cells (hTert osteoblasts); assay: mRNA expression in MOB cell line treated with D6R; type: cell-based
Protocol: (§1) The dose-dependent effects of D6R (0-200 μM) on SPC2 activity in hTert osteoblasts (MOB) and MC3T3 osteoblasts in culture were also examined. […] Treatment of MC3T3 cells for a similar period likewise increased enzyme activity at 200 μM (124±14 vs 171±7 fluorescent units/min; p<0.05). Treatment of the MOB cell line with D6R, and the resulting increase in SPC2 enzyme activity decreased Fgf23 mRNA expression (1.0±0.7 vs 0.2±0.1 fold; p<0.001).

[2] = test system: SPC2; assay: SPC2 activity in MC3T3 osteoblasts in culture; type: cell-based; details: MC3T3 cells, D6R 200 μM, similar period (48 hours); control 124±14; p<0.05
Protocol: as §1

[3] = test system: hyp-mice; assay: In vivo daily ip injection of D6R in hyp mice (murine model of XLH); set-up: species or system mouse
Protocol: In vivo injection of D6R in normal and hyp mice: 3-week old normal and hyp mice were randomly separated into two groups for each strain. One group of mice received daily ip injection of saline. […] Blood samples were obtained every 3 days via retro-orbital bleedings. At the end of the in vivo injection period, the animals were euthanized with an overdose of sodium pentobarbital (65 mg/kg). The final blood sample was collected by cardiac puncture for large volume of serum preparation. Kidney and femoral bone samples were collected for total RNA and protein extractions.
(§2) Biochemistry measurements: Serum Pi levels were measured using Phosphorus Liqui-UV kit from Stanbio Laboratory (Boerne, Tex.). Serum Ca levels were measured using calcium Liquicolor kit from Stanbio following the manufacturer's protocols. Serum intact FGF-23 was measured employing a FGF-23 ELISA kit obtained from Kainos Laboratories, Japan. Serum C-terminal FGF-23 was measured using ELISA kit from Immunotopics, CA.
Real-time RT-PCR for mRNA expression: Total RNA was isolated from kidney samples and femurs. The femurs were trimmed of all fat, homogenized into fine powder in liquid nitrogen using porcelain motor and pestle. Total RNA was then extracted using TRIzol Reagent (Invitrogen, CA) following the manufacturer's protocol. Kidney samples were rinsed free of blood using ice-cold PBS buffer. Then the kidney was homogenized in TRIzol Reagent using mortor and pestle. Then, the renal total RNA was isolated following the manufacturer's protocol. RT reactions were performed using Bio-Rad iScript cDNA synthesis kit (Bio-Rad, CA) with poly-A primers. FGF-23 mRNA, as well as Npt2 mRNA and 25(OH)D3-1α-hydroxylase mRNA were quantitated by real-time PCR using gene specific primers.
Western blot for protein expression: Kidney proteins were isolated using sucrose buffer containing 20 mM HEPES, 1 mM EDTA, 255 mM sucrose, 0.4 mM phenylmethylsulfonyl fluoride, and 2 μg/ml leupeptin. The homogenate was centrifuged at 1,500 g for 15 min, and the pellet containing mitochondrial protein, including 25(OH)D-1α-hydroxylase, was re-suspended in the same buffer, aliquoted, and stored at −80° C. until use. The supernatant that contained the plasma membrane protein obtained after centrifugation was also collected for the measurement of Npt2 protein. Bone samples were homogenized into fine powder in liquid nitrogen. Protein contents were isolated using T-PER tissue protein extraction reagent with Halt protease inhibitor cocktail (Thermo Scientific, Rockford, Ill.).
A 20 μg aliquot of the respective protein extracts was electrophoresed in 10% SDS-PAGE gel and transferred onto a nitrocellulose membrane. The membrane was then washed and probed with specific antibodies and subsequently with specific secondary antibodies conjugated with HRP. To quantitate the immunoblotting signal, 6 ml of chemiluminescence detection solution (ECL plus, Amersham, UK) was added, and the signal was detected directly by the fluorescent scanner (Storm 860, Amersham, UK). Band density was analyzed using ImageQuant 5.2 software (Molecular Dynamics, Sunnyvale, Calif.). The antibody was then removed by incubating the membrane in reprobing solution (62.5 mM Tris-HCl, 2% SDS, and 100 mM 2-mercaptoethanol, pH 6.7) for 30 min, 50° C. The membrane was then blocked and probed with specific anti-β-actin antibody to verify the loading equivalence among samples.
High-resolution radiography (x-ray) for the femus: mouse femurs were extracted and incubated in lysis buffer (2×SSC, 0.2% SDS, 10 mM EDTA, 10 mg/ml proteinase K) for 2 days. After the surrounding muscles were digested, the femurs were washed in PBS buffer and X-rayed on a Faxitron model MX-20 Specimen Radiography System with a digital camera attached (Faxitron x-ray Corp., Buffalo Grove, Ill.). […]

[4] = test system: SPC2; assay: SPC2 activity in hTert osteoblasts (MOB) in culture; type: cell-based; details: D6R 50 μM, p<0.01
Protocol: as §1

[5] = test system: normal mice; assay: In vivo daily ip injection of D6R in normal mice; set-up: species or system mouse; details: D6R treated, daily ip for 5 weeks, saline 200 ± 15.5, p<0.001
Protocol: In vivo injection of D6R in normal and hyp mice: 3-week old normal and hyp mice were randomly separated into two groups for each strain. One group of mice received daily ip injection of saline. The other group of mice received daily ip injection of D6R 1.5 μg/kg/day for 5 weeks. Blood samples were obtained every 3 days via retro-orbital bleedings. At the end of the in vivo injection period, the animals were euthanized with an overdose of sodium pentobarbital (65 mg/kg). The final blood sample was collected by cardiac puncture for large volume of serum preparation. Kidney and femoral bone samples were collected for total RNA and protein extractions.
as §2

SPC2 enzyme activity [2]: 171±7 fluorescent units/min
Substance: hexa-D-arginine [D6R]
Fgf23 mRNA expression ([1]; MOB cell line treated with D6R, control 1.0±0.7, p<0.001): 0.2±0.1 fold | SPC2 mRNA expression ([1]; MOB cells treated with D6R): without alteration | 7B2 mRNA expression ([1]; MOB cells treated with D6R, control 1.0±0.2, p<0.001): 3.6±0.4 fold | mineral apposition rate ([3]; D6R treated hyp-mice, FIGS. 12-13): normalization; also recorded: restoration of normal bone mineral apposition rate | serum FGF23 concentration ([3]; Hyp-mice, D6R treated, daily ip for 5 weeks, saline 2126 ± 281, p<0.001): 1682 ± 191 | bone modeling (long bone circumference) ([3]; hyp mouse): decreased to normal | length of the long bones in the extremities ([3]; hyp mouse): increased | renal 25(OH)D3-1α-hydroxylase activity (translational abnormality) ([3]; hyp mouse): normalized | degradation of serum FGF23 ([3]; hyp mouse, D6R treatment, FIG. 3B): increased | degradation of intact FGF23 in hyp-mouse bone ([3]; hyp mouse, ip x 5 weeks): enhanced | Fgf23 mRNA expression ([3]; hyp mouse, ip x 5 weeks, FIG. 3A): decreased | Npt2a mRNA ([3]; hyp mouse, kidney, FIGS. 2A-B): normalization | renal phosphate wasting and serum phosphorus levels ([3]; hyp mouse, FIG. 1): normalization | Sost mRNA and the coded protein Sclerostin ([3]; hyp mouse, FIG. 4): suppression | bone 7B2 mRNA expression ([3]; hyp mouse, FIG. 5): stimulation | bone density normalization ([3]; hyp mouse, FIG. 9): increasing | Osteoid surface/Bone surface (OS/BS) ([3]; hyp mouse, FIG. 11A): decreasing | Mineralized area/Total Area (MA/TA ratios) ([3]; hyp mouse, FIG. 11B): enhancing | rickets and osteomalacia ([3]; hyp mouse, FIGS. 6-13): cured | SPC2 activity, h-Tert osteoblasts ([4]; control 121 ± 18): 329 ± 17 fluorescent units | SPC2 activity ([4]; hTert osteoblasts, 48 hours, control 121±18): 329±17 fluorescent units/min | serum FGF23 concentration [5]: 120 ± 12.5
